Measured values reported in ChEMBL document CHEMBL3784922, “D-Amino acid oxidase inhibitors based on the 5-hydroxy-1,2,4-triazin-6(1H)-one scaffold” (Bioorg Med Chem Lett, 2016).

Legend:
D-amino-acid oxidase = D-amino-acid oxidase (Homo sapiens, UniProt P14920); experiment: Inhibition of recombinant human DAAO assessed as oxidative deamination of D-serine in presence of molecular oxygen and FAD after 20 mins
Mus musculus [1] = species on record: Mus musculus; details: CD-1
Mus musculus [2] = experiment: AUC (0 to 6 hrs) in CD-1 mouse plasma at 30 mg/kg, po by HPLC-MS analysis; format: ADME, organism-based; set-up: time < 6 hr, dose 30 mg/kg, route oral; details: in vivo
Mus musculus [3] = experiment: In-vivo inhibition of DAAO in CD-1 mouse assessed as plasma clearance of D-serine at 30 mg/kg, po after 3 hrs; format: organism-based
[4] = Metabolic stability in mouse liver microsomes assessed as compound remaining after 60 mins by LC-MS/MS analysis in presence of UDPGA; format: ADME; details: for Stability: microsomes, 1 h
Mus musculus [5] = experiment: In-vivo inhibition of DAAO in CD-1 mouse assessed as increase in D-serine AUC (0 to 6 hrs) at 30 mg/kg, po relative to control; format: functional
[6] = Metabolic stability in mouse liver microsomes assessed as compound remaining after 60 mins by LC-MS/MS analysis in presence of NADPH; format: ADME; details: for Stability: microsomes, 1 h
[7] = Tmax in CD-1 mouse plasma by HPLC-MS analysis; format: ADME, organism-based
Mus musculus [8] = experiment: In-vivo inhibition of DAAO in CD-1 mouse assessed as plasma clearance of D-serine at 30 mg/kg, po upto 3 hrs; format: organism-based
[9] = Plasma protein binding in CD-1 mouse at 30 mg/kg, po by ultrafiltration technique; format: ADME, organism-based; details: read-out: PPB (converted)
[10] = liver microsomes, read-out: Stability

Chain of D-amino-acid oxidase (P14920 whole entry): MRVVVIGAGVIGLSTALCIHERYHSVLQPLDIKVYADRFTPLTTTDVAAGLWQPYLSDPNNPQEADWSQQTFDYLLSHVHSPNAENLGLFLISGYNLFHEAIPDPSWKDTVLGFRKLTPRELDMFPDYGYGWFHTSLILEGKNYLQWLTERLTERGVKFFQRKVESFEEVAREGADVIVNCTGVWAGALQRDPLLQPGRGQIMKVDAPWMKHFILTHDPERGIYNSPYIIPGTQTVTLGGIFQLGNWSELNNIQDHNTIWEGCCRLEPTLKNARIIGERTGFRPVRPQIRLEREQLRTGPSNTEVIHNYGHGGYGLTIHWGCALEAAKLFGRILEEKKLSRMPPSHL

| IC50 (D-amino-acid oxidase) [nM] | Structure (SMILES) | other results |
| --- | --- | --- |
| 700 | O=c1[nH]nc(SCc2cccc(-c3ccccc3)c2)nc1O |  |
| 60 | O=c1[nH]nc(CCc2ccccc2)nc1O | AUC (Mus musculus [1]): 74200 ng·h/mL; AUC (Mus musculus [2]): 8070 ng·h/mL; inhibition (INH) (Mus musculus [3]): Not Active; Stability [4]: 98%; fold change (FC) (Mus musculus [5]): 1.7; Stability [6]: 79%; Tmax [7]: 30 min; inhibition (INH) (Mus musculus [8]): Active; fraction unbound [9]: 0.26 |
|  | O=c1[nH]c(=O)n(Cc2cccc3ccccc23)nc1O | remaining at 1 h [4, 10]: > 99%; remaining at 1 h [6, 10]: > 99% |
| 4000 | O=c1[nH]nc(CCCc2ccccc2)nc1O |  |
| 70 | O=c1[nH]nc(Cc2ccccc2)nc1O |  |
| 600 | O=c1[nH]nc(SCC2CCCCC2)nc1O |  |
| 90 | O=c1[nH]nc(SCc2ccc(-c3ccccc3)cc2)nc1O |  |
| 50 | O=c1[nH]nc(SCc2ccc(I)cc2)nc1O |  |
| 40000 | O=c1[nH]nc(SCCc2ccccc2)nc1O |  |
|  | O=c1[nH]nc(SCc2ccc3cc(F)ccc3c2)nc1O | Stability [4]: 95%; Stability [6]: 91% |
| 50 | O=c1[nH]nc(SCc2ccc(Cl)c(Cl)c2)nc1O |  |
| 200 | O=c1[nH]nc(SCc2noc3ccccc23)nc1O |  |
| 30 | O=c1[nH]nc(SCc2ccc(Cl)cc2)nc1O |  |
| 300 | CC(C)(C)c1ccc(CSc2n[nH]c(=O)c(O)n2)cc1 |  |
| 100 | O=c1[nH]nc(SCc2ccccc2)nc1O |  |
